According to the supplement of paper PMC10627819:

Experiments:
Conditions in all cases: main component drawn
S. pneumoniae D39V [1] = test: fitness (endpoint OD595 vs no drug) (fraction); higher = more growth
Summary of the method: (§1)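 Fitness was defined as the optical density at the transition into stationary phase relative to the robust mean of no-drug control wells. Values were capped at 1. Cultures were started at OD595 0.01 in 384-well plates (30 µl, or 55 µl for S. pneumoniae) in TSB, LB Lennox or CY at 37 °C. OD595 was recorded every 30 min over 14 h, with the first reading subtracted as background.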

B. subtilis 168 [2] = test: as above
Summary of the method: as §1

S. pneumoniae D39V [3] = test: Bliss interaction score (quartile over a dose matrix) (fitness difference); higher = more antagonism (negative = synergy)
Summary of the method: (§2)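 Quartiles of the Bliss score were taken over technical, biological and donor/recipient replicates. That score is observed fitness minus the product of the single-drug fitness values, which were inferred from combination data. Fitness itself is OD595 at entry into stationary phase divided by the plate's robust no-drug mean, with a cap at 1.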

S. aureus DSM 20231 = test: as above
Summary of the method: as §2

S. aureus Newman = test: as above
Summary of the method: as §2

B. subtilis 168 [4] = test: as above
Summary of the method: as §2
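Wherever Bliss interaction score (quartile over a dose matrix) is given: first quartile when negative (synergy) and third quartile when positive (antagonism).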

COc1cccc2c1C(=O)c1c(O)c3c(c(O)c1C2=O)C[C@@](O)(C(=O)CO)C[C@@H]3O[C@H]1C[C@H](N)[C@H](O)[C@H](C)O1 [Doxorubicin] + CCC(C)C1C(=O)NC(=C)C(=O)NC(C(=O)NC(CSCC(C(=O)N1)NC(=O)/C(=C/C)/NC(=O)C(C(C)CC)N)C(=O)NC2C(SCC(NC(=O)CNC(=O)C3CCCN3C2=O)C(=O)NC(CCCCN)C(=O)NC4C(SCC(NC(=O)CNC(=O)C(NC(=O)C(NC(=O)C(NC(=O)CNC4=O)C)CC(C)C)CCSC)C(=O)NC(CC(=O)N)C(=O)NC(CCSC)C(=O)NC(CCCCN)C(=O)NC5C(SCC6C(=O)NC(C(=O)NC(CSC(C(C(=O)N6)NC(=O)C(NC5=O)C)C)C(=O)NC(CO)C(=O)NC(C(C)CC)C(=O)NC(CC7=CN=CN7)C(=O)NC(C(C)C)C(=O)NC(=C)C(=O)NC(CCCCN)C(=O)O)CC8=CN=CN8)C)C)C)CC(C)C [Nisin]
Conditions | fitness
B. subtilis 168 [2], first compound 0.625 µg/mL, partner 0.5 µg/mL | 0.882
B. subtilis 168 [2], first compound 0.625 µg/mL, partner 1 µg/mL | 0.852
B. subtilis 168 [2], first compound 0.625 µg/mL, partner 2 µg/mL | 0.459
B. subtilis 168 [2], first compound 1.25 µg/mL, partner 0.5 µg/mL | 0.821
B. subtilis 168 [2], first compound 1.25 µg/mL, partner 1 µg/mL | 0.83
B. subtilis 168 [2], first compound 1.25 µg/mL, partner 2 µg/mL | 0.567
B. subtilis 168 [2], first compound 2.5 µg/mL, partner 0.5 µg/mL | 0.688
B. subtilis 168 [2], first compound 2.5 µg/mL, partner 1 µg/mL | 0.603
B. subtilis 168 [2], first compound 2.5 µg/mL, partner 2 µg/mL | 0.19
S. pneumoniae D39V [1], first compound 0.25 µg/mL, partner 0.4275 µg/mL | 0.998
S. pneumoniae D39V [1], first compound 0.25 µg/mL, partner 0.855 µg/mL | 0.991
S. pneumoniae D39V [1], first compound 0.25 µg/mL, partner 1.6 µg/mL | 0.0164
S. pneumoniae D39V [1], first compound 0.25 µg/mL, partner 1.71 µg/mL | 0.0746
S. pneumoniae D39V [1], first compound 0.25 µg/mL, partner 3.2 µg/mL | 0.0268
S. pneumoniae D39V [1], first compound 0.25 µg/mL, partner 6.4 µg/mL | 0.0249
S. pneumoniae D39V [1], first compound 0.5 µg/mL, partner 0.4275 µg/mL | 0.977
S. pneumoniae D39V [1], first compound 0.5 µg/mL, partner 0.855 µg/mL | 0.91
S. pneumoniae D39V [1], first compound 0.5 µg/mL, partner 1.6 µg/mL | 0.0215
S. pneumoniae D39V [1], first compound 0.5 µg/mL, partner 1.71 µg/mL | 0.0797
S. pneumoniae D39V [1], first compound 0.5 µg/mL, partner 3.2 µg/mL | 0.0424
S. pneumoniae D39V [1], first compound 0.5 µg/mL, partner 6.4 µg/mL | 0.039
S. pneumoniae D39V [1], first compound 1 µg/mL, partner 0.4275 µg/mL | 0.844
S. pneumoniae D39V [1], first compound 1 µg/mL, partner 1.6 µg/mL | 0.0081
S. pneumoniae D39V [1], first compound 1 µg/mL, partner 1.71 µg/mL | 0.065
S. pneumoniae D39V [1], first compound 1 µg/mL, partner 3.2 µg/mL | 0.0126
S. pneumoniae D39V [1], first compound 1 µg/mL, partner 6.4 µg/mL | 0.0281

fitness, B. subtilis 168 [2], one replicate
Conditions | partner 1.25 µg/mL | partner 1.6 µg/mL | partner 2.5 µg/mL | partner 3.2 µg/mL | partner 4 µg/mL | partner 5 µg/mL | partner 6.4 µg/mL | partner 8 µg/mL | partner 16 µg/mL
first compound 0.625 µg/mL | ≥ 1 | 0.646 | 0.612 | 0.0265 | 0.0271 | 0.0205 | 0.0251 | 0.0074 | 0.0185
first compound 1.25 µg/mL | 0.996 | 0.742 | 0.659 | 0.0085 | 0.0489 | 0.0315 | 0.0249 | 0.0463 | 0.0265
first compound 2.5 µg/mL | 0.888 | 0.178 | 0.451 | 0.0274 | 0.0327 | 0.0219 | 0.0137 | 0.0311 | 0.0578

Conditions | Bliss interaction score
B. subtilis 168 [4] | 0.0614
S. aureus DSM 20231 | 0.0625
S. aureus Newman | -0.0646
S. pneumoniae D39V [3] | -0.0536
